{
  "source": "paper PMC4664966",
  "about": "“Discovery and characterization of novel inhibitors of the sodium-coupled citrate transporter (NaCT or SLC13A5)” (Scientific Reports, 2015)",
  "key": {"[1]": {"molecular_target": "Adrenergic receptor, beta-1 (ADRB1) (Homo sapiens, UniProt P08588)", "sequence (P08588 whole entry)": "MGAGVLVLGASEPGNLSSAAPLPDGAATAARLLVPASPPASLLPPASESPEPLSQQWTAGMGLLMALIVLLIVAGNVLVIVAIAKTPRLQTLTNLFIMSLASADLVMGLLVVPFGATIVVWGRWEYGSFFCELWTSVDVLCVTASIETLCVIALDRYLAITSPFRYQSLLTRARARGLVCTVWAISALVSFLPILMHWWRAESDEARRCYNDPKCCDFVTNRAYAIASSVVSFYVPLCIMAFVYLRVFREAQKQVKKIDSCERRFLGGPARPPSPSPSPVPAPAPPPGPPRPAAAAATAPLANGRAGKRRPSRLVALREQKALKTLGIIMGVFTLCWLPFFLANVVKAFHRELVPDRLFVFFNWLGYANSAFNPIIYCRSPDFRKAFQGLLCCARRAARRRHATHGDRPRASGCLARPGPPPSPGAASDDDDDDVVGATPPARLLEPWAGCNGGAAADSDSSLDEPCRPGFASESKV", "experiment": "Selectivity data (Table S1)", "assay_type": "binding"}, "HEK-293 parental cells": {"test_system": "HEK-293 parental cells", "experiment": "Intracellular concentration of compound in HEK-293 parental cells", "assay_type": "in vitro ADME, human", "conditions": "1 hour incubation; data not shown"}, "Dopamine receptor 2 (D2)": {"molecular_target": "Dopamine receptor 2 (D2) (Homo sapiens, UniProt P14416)", "experiment": "Selectivity data (Table S1)", "assay_type": "binding"}, "[2]": {"molecular_target": "Cholecystokinin receptor B (CCKBR) (Homo sapiens, UniProt P32239)", "sequence (P32239 whole entry)": "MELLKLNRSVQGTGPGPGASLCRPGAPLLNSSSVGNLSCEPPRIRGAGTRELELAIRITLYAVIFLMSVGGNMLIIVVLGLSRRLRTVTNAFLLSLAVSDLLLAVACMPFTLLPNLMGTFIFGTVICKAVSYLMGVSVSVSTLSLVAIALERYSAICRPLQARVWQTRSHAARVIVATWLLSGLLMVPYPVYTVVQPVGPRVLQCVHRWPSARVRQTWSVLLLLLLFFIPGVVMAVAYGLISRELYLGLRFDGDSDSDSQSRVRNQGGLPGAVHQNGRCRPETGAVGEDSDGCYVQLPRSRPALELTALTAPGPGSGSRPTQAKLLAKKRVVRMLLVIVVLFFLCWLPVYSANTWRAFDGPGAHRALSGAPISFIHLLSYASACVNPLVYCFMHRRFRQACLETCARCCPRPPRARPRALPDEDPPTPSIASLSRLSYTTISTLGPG", "experiment": "Selectivity data (Table S1)", "assay_type": "binding"}, "pKa": {"experiment": "pKa", "assay_type": "physicochemical"}, "[3]": {"molecular_target": "Monoamine oxidase A (MAOA) (Homo sapiens, UniProt P21397)", "sequence (P21397 whole entry)": "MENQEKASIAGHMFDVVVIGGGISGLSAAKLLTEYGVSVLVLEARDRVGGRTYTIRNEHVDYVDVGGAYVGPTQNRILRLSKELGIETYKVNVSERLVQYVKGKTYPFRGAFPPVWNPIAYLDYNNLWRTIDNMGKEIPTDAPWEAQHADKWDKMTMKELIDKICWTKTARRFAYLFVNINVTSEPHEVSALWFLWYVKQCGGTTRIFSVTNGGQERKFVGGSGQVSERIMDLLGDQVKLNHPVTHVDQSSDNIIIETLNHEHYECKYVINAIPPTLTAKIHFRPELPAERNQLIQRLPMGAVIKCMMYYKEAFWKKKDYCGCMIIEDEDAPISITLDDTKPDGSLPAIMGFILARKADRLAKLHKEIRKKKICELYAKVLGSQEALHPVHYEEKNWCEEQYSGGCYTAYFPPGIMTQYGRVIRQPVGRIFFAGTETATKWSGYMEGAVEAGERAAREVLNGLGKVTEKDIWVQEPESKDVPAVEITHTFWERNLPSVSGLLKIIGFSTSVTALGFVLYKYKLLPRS", "experiment": "Selectivity data (Table S1)", "assay_type": "biochemical"}, "[4]": {"experiment": "Intra-/extracellular unbound concentration ratio (Kpuu) in HEKNaCT cells", "assay_type": "in vitro ADME", "conditions": "human, ratio of free intracellular and media concentration after 1 h incubation at 1 μM, geometric mean of 3 replicates ± SD", "procedure": "kpuu values were determined by measuring total cell and media concentrations corrected for their respective fraction unbound. Detailed methods to determine intra- and extracellular concentrations of compound in the HEKNaCT cells and human hepatocytes will be the subject of a separate manuscript that is under preparation. […]\nIntra- and extracellular concentrations of compound in cellular assays. kpuu values were determined by measuring total cell and media concentrations corrected for their respective […]\nfraction unbound. […]\nThe solution was heated to reflux until the total volume was reduced to ~25 mL.\nHexane (25 mL) was added and the mixture was brought back to reflux than allowed to slowly cool to room temperature. After standing at room temperature for 16 h, the resulting suspension was filtered and dried under high vacuum to yield (S)-2-(4-(tert-butyl)phenethyl)-2-hydroxysuccinic acid (3) as a white solid. The filtrate was allowed to stand at room temperature for 4 days. The solvent evaporated to ~15 mL and large, colorless crystals formed.\nX-ray analysis. Data collection was performed on a Bruker APEX diffractometer at room temperature. Data collection consisted of 3 omega scans and low angle and three at high angle; each with 0.5 step. In addition, 2 phi scans were collected to improve the quality of the […]"}, "[5]": {"molecular_target": "Phosphodiesterase 3A1 (PDE3A1) (Homo sapiens, UniProt Q14432)", "sequence (Q14432 whole entry)": "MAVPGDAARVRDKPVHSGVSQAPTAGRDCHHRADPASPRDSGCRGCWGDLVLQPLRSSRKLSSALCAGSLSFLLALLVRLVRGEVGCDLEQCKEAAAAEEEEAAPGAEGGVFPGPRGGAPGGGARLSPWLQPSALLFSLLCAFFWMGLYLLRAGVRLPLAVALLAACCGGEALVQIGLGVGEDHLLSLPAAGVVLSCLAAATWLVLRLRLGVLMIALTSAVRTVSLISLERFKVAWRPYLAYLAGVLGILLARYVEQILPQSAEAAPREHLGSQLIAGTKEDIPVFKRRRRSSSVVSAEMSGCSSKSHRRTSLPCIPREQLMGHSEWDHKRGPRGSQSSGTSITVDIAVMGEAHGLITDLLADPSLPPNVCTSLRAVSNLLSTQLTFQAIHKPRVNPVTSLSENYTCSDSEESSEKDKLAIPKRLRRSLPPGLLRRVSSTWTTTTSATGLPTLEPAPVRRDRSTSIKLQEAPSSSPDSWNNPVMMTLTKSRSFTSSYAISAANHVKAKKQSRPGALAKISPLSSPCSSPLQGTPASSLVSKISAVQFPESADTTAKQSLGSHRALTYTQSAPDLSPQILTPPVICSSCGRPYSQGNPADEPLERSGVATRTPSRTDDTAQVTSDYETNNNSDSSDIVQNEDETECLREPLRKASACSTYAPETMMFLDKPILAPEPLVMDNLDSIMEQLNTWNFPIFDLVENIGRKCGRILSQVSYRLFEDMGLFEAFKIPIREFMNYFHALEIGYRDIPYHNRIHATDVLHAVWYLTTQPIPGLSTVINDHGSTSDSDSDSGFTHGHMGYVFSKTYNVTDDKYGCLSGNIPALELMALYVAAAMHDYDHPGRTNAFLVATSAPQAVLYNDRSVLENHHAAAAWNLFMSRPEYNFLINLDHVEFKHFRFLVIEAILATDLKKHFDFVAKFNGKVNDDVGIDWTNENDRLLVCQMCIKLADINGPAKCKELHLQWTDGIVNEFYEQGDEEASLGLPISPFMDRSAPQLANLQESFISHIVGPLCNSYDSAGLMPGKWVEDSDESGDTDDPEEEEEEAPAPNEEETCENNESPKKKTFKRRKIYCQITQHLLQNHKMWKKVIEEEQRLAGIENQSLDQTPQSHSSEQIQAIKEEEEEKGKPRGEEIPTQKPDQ", "experiment": "Selectivity data (Table S1)", "assay_type": "biochemical"}, "[6]": {"molecular_target": "ATP-binding cassette, sub-family B, member 11 (ABCB11) (Homo sapiens, UniProt O95342)", "experiment": "Selectivity data (Table S1)"}, "[7]": {"molecular_target": "Diacylglycerol acyltransferase 2 (DGAT2) (Homo sapiens, UniProt Q96PD7)", "sequence (Q96PD7 whole entry, species assumed)": "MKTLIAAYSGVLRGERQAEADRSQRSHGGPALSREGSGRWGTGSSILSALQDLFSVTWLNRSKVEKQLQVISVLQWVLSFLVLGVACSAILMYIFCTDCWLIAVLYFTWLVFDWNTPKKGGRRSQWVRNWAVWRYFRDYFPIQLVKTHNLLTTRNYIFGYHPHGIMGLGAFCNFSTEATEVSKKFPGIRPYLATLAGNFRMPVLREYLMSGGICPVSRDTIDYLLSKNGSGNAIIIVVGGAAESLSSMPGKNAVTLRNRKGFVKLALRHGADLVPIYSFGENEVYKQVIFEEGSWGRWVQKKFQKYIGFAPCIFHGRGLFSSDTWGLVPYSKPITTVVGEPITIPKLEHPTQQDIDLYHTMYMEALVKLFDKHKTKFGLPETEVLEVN", "experiment": "Selectivity data (Table S1)", "assay_type": "biochemical"}, "NaDC1 (SLC13A2)": {"molecular_target": "T1, NaDC1 (SLC13A2) (Homo sapiens, UniProt Q13183)", "T1 construct": "host or cells: HEK-293, transient (Fugene HD)", "T1 sequence (Q13183 1-592)": "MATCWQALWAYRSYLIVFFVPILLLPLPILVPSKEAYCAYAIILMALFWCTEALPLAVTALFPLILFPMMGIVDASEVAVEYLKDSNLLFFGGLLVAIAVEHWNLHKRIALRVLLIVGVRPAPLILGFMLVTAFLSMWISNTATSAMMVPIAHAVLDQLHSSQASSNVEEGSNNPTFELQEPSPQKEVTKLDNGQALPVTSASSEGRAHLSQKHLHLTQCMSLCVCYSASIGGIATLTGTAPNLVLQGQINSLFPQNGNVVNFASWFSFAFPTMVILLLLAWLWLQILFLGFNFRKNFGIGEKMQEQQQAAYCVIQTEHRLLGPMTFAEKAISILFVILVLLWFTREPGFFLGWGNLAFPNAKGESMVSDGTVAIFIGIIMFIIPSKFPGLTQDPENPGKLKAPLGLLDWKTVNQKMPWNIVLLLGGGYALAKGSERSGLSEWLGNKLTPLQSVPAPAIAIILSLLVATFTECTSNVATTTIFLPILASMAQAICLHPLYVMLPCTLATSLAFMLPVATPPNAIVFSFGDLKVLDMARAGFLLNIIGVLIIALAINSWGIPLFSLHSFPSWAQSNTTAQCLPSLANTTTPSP", "experiment": "Inhibition of citrate or succinate uptake in HEKNaDC1 cells", "assay_type": "cell-based", "source_text": "Protocols to generate the stable cell line overexpressing NaCT or cell transfection with SLC13A2 or SLC13A3 can be found in the supporting information. HEK-293 cells stably transfected with the human sodium Citrate transporter SLC13A5 or transiently transfected with the human SLC13A2 or SLC13A3 transporter were removed from the flasks with dissociation buffer and re-suspended in an equal volume of growth media (DMEM, High Glucose supplemented with 10% heat inactivated fetal bovine serum and 500 μg/ml Geneticin). For the transient transfections, Geneticin was eliminated from the media. Cell suspensions were centrifuged at 1,000 rpm for approximately 5 minutes. Resulting cell pellets were re-suspended in growth media and placed in a 37 °C water bath for approximately 10 minutes prior to a final spin at 1,000 rpm. Following this spin the resulting cell pellets were re-suspended in assay buffer, 142 mM NaCl (or 142 mM choline chloride), 5 mM KCl, 1.2 mM MgSO4, 1.5 mM CaCl, 5 mM glucose and 25 mM HEPES pH 7.4. Cell suspensions were counted and the concentration adjusted as needed with assay buffer to 2e[6] viable cells /mL. 20 μL of cell suspension were added to 384-well cyotstar-T plates followed by the addition of 5 μL of 10× concentration of compound. Cells and compound were incubated at 37 °C for approximately 30 minutes prior to the addition of 25 μL of 300 μM citric acid (16 μM radiolabeled [^14C]-citric acid and 284 μM cold citric acid) to make a 150 μM final concentration of citric acid or 21 μM [^14C]-succinic acid. After substrate addition, the uptake of radioactivity was monitored on Perkin Elmer Microbeta plate reader. Data from reads between 45–90 minutes was used to assess the ability of test compounds to inhibit the uptake of citric or succinic acid. […]\nwere plated, and incubated for 48 hours. Following the incubation, NaDC1 and NaDC3 assays were executed identical to the procedure for NaCT. […]\nThe solution was heated to reflux until the total volume was reduced to ~25 mL. […]"}, "[8]": {"molecular_target": "Adenosine receptor A1 (ADORA1) (Homo sapiens, UniProt P30542)", "sequence (P30542 whole entry)": "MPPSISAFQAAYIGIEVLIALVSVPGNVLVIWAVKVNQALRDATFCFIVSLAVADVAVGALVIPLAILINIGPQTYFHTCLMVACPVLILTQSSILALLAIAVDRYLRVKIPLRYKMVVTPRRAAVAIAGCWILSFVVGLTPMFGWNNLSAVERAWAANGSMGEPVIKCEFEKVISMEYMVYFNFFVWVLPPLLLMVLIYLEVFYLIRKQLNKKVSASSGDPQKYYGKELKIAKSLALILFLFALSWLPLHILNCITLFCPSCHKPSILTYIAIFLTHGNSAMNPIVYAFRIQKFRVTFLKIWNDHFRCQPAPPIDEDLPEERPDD", "experiment": "Selectivity data (Table S1)", "assay_type": "binding"}, "[9]": {"molecular_target": "Serotonin receptor 1B (5-HT1B) (Homo sapiens, UniProt P28222)", "sequence (P28222 whole entry)": "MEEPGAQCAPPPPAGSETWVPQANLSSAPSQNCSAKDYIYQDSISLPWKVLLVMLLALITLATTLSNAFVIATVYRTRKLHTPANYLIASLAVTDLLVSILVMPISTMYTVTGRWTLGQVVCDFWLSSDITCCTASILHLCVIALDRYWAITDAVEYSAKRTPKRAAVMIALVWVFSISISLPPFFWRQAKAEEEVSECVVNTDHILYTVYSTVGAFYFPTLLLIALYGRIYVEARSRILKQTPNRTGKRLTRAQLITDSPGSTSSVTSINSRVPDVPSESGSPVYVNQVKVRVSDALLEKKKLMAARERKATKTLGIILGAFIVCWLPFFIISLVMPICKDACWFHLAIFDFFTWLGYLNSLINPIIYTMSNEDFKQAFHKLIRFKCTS", "experiment": "Selectivity data (Table S1)", "assay_type": "binding"}, "[10]": {"molecular_target": "Muscarinic acetylcholine receptor 1 (M1) (Homo sapiens, UniProt P11229)", "sequence (P11229 whole entry)": "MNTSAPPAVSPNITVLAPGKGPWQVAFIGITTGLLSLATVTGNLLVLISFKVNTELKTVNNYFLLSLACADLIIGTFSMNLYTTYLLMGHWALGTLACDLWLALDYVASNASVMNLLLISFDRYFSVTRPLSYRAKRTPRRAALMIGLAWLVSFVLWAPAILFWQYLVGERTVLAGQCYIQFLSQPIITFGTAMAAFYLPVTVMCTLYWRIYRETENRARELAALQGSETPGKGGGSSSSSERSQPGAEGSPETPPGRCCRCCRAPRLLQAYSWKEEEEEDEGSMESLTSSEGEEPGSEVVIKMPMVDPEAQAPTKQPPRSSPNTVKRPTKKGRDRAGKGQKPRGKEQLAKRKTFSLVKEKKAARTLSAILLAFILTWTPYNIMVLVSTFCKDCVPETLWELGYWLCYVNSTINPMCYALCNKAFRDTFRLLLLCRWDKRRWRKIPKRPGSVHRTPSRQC", "experiment": "Selectivity data (Table S1)", "assay_type": "binding"}, "[11]": {"molecular_target": "Cannabinoid receptor 1 (CB1) (Homo sapiens, UniProt P21554)", "sequence (P21554 whole entry)": "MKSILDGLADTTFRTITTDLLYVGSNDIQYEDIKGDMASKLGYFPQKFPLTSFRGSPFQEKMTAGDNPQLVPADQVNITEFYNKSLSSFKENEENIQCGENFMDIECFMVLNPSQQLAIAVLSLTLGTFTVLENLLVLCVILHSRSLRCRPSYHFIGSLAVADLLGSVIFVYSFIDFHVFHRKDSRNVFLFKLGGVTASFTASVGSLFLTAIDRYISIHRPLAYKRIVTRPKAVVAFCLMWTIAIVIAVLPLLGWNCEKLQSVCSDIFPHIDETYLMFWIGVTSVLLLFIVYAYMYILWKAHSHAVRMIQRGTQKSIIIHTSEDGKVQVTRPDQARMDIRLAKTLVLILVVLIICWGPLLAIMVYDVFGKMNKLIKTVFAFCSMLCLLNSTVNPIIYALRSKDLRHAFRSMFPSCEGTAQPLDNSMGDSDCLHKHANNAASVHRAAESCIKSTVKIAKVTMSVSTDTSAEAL", "experiment": "Selectivity data (Table S1)", "assay_type": "binding"}, "[12]": {"molecular_target": "Vascular endothelial growth factor receptor 2 (VEGFR-2) (Homo sapiens, UniProt P35968)", "experiment": "Selectivity data (Table S1)", "assay_type": "binding"}},
  "data": [
    {"molecule": "CC(C)(C)c1ccc(CC[C@@](O)(CC(=O)O)C(=O)O)cc1", "note": "[Compound 2]", "values": [
      {"measurement": "inhibition at 100 µM", "setting": "[1]", "result": "< 10", "unit": "%"},
      {"measurement": "intracellular level in HEK-293 parental cells", "setting": "HEK-293 parental cells", "result": "not detected at significant levels"},
      {"measurement": "inhibition at 100 µM", "setting": "Dopamine receptor 2 (D2)", "result": "< 10", "unit": "%"},
      {"measurement": "inhibition at 100 µM", "setting": "[2]", "result": "< 10", "unit": "%"},
      {"measurement": "pKa", "setting": "pKa", "result": 3.1},
      {"measurement": "inhibition at 100 µM", "setting": "[3]", "result": "< 10", "unit": "%"},
      {"measurement": "Kp uu at 1 h, 1 µM", "setting": "[4]", "result": "29 ± 5"},
      {"measurement": "IC50", "setting": "[5]", "result": "> 30", "unit": "µM"},
      {"measurement": "IC50", "setting": "[6]", "result": "> 200", "unit": "µM"},
      {"measurement": "IC50", "setting": "[7]", "result": "> 50", "unit": "µM"},
      {"measurement": "inhibition of citrate or succinate uptake, NaDC1", "setting": "NaDC1 (SLC13A2); HEK-293-derived system overexpressing NaDC1", "result": "No measurable inhibition"},
      {"measurement": "IC50", "setting": "NaDC1 (SLC13A2); compound 4: mean of 2 replicates", "result": "> 100", "unit": "µM"},
      {"measurement": "inhibition at 100 µM", "setting": "[8]", "result": "< 10", "unit": "%"},
      {"measurement": "inhibition at 100 µM", "setting": "[9]", "result": "< 10", "unit": "%"},
      {"measurement": "inhibition at 100 µM", "setting": "[10]", "result": "< 10", "unit": "%"},
      {"measurement": "inhibition at 100 µM", "setting": "[11]", "result": "< 10", "unit": "%"},
      {"measurement": "inhibition at 100 µM", "setting": "[12]", "result": "< 10", "unit": "%"}
    ]}
  ]
}
